Reference: patent US11976054B2, “Amide derivative and preparation method therefore and use thereof in medicine” (Chengdu Baiyu Pharmaceutical Co., Ltd., priority 2019, dated 2024)

Columns and labels:
[1] = Pharmacokinetic analysis of compounds in rats; format: in vivo, SD rats
Method in brief: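 Fasted SD rats (180–220 g) dosed by tail vein or intragastrically. Orbital-plexus blood sampled pre-dose and from 5 min to 24 h. Plasma parent drug quantified by LC-MS/MS.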

[2] = system: Human monocyte cell line THP-1; assay: Detection of THP-1 cell pyroptosis (Caspase-Glo 1 Inflammasome Assay); format: cell-based; details: THP-1 pyroptosis, 20 nM PMA 48 h, 1 μg/mL LPS, compound 3 h
Method in brief: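 Differentiated with 20 nM PMA for 48 h (50,000 cells/well), then given serum-free medium with 1 μg/mL LPS and compound in a 10-point, 3-fold series from 10 μM for 3 h at 37 °C. Caspase-1 activity read with Caspase-Glo 1 Inflammasome kit; IC50 calculated.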

[3] = system: Rat dorsal air pouch models; assay: Rat dorsal air pouch pharmacodynamic models (sodium urate); format: in vivo, SD rats; details: 50 mg/kg intragastric, air pouch exudate 5 h after 1% sodium urate; for IL-1β concentration in exudate: ELISA
Description: Healthy adult male SD rats weighing 180-220 g were purchased, and rat dorsal air pouch models were constructed after adaptive feeding of the rats. On day 1, day 4 and day 7 of modeling, 20 mL of sterile air was injected subcutaneously into the back of rats by means of injection needles, and the air pouch was maintained at an inflated state. On day 8, 50 mg/kg compound or vehicle control was administered intragastrically. 5 mL of 1% sodium urate suspension was injected into the dorsal air pouch, and air pouch exudate was collected 5 h later. 40 μL of the exudate was taken for leukocyte counting. The remaining exudate was centrifuged at 1500 rpm for 20 min, and the supernatant was collected to detect the expression level of IL-1β by ELISA (BD, Human IL-1β ELISA Set II, Cat #557953).

[4] = system: IL-1β release in human PBMCs; assay: Assay of IL-1β release in human PBMCs; format: cell-based; details: 10 ng/mL LPS 3 h, compound 0.5 h, 5 mM ATP 1 h, ELISA
Description: 5 mL of human venous whole blood from a healthy donor was placed in a Li-heparin tube. PBMCs were isolated and incubated in a culture medium containing 10 ng/mL LPS at 37° C./5% CO2 for 3 h. Cells were plated in a 96-well plate at 50 μL per well. 25 μL of compound or solvent control was added to each well and 3-fold diluted in gradient from a maximum concentration of 10 μM, and 8 gradient concentrations were set. The mixtures were incubated for 0.5 h. 25 μL of ATP at a final concentration of 5 mM was added to each well, and the resulting mixtures were incubated for 1 h. After the incubation, the mixtures were centrifuged at 1500 rpm for 20 min, and the supernatant was collected to detect the expression level of […] by ELISA (BD, Human IL-1β ELISA Set II, Cat #557953). IC50 was calculated using GraphPad Prism7.0 software. The results are shown in Table 2, which indicate that: the compounds disclosed herein down-regulate release of mature IL-1β by inhibiting the activity of Caspase-1, and the IC50 is <50 nM.

[5] = SD rats, iv (tail vein), 1 mg/kg, plasma
[6] = SD rats, po (intragastric), 10 mg/kg, plasma

| SMILES | AUC [1, 5] [ng·h/mL] | Cl [1, 5] [mL/min/kg] | Vss [1, 5] [L/kg] | t1/2 [1, 5] [h] | F % ([1]; SD rats, po 10 mg/kg vs iv 1 mg/kg) [%] | AUC [1, 6] [ng·h/mL] | Cmax [1, 6] [ng/mL] | t1/2 [1, 6] [h] | IC50 [2] [nM] | Leukocyte concentration (10^6/mL) [3] | IL-1β concentration in exudate [3] [pg/mL] | IC50 [4] [nM] | AUC ([1]; rat, in vivo, iv, 1 mg/kg) [ng·h/mL] | Cl ([1]; rat, in vivo, iv, 1 mg/kg) [mL/min/kg] | Vss ([1]; rat, in vivo, iv, 1 mg/kg) [L/kg] | t1/2 ([1]; rat, in vivo, iv, 1 mg/kg) [h] | AUC ([1]; rat, in vivo, po, 10 mg/kg) [ng·h/mL] | Cmax ([1]; rat, in vivo, po, 10 mg/kg) [ng/mL] | t1/2 ([1]; rat, in vivo, po, 10 mg/kg) [h] |
| --- | --- | --- | --- | --- | --- | --- | --- | --- | --- | --- | --- | --- | --- | --- | --- | --- | --- | --- | --- |
| CC(c1ccc2c(c1NC(=O)NS(=N)(=O)c1cc(C(C)(C)O)co1)CCC2)C1CC1 (racemic) [Compound 8-1, (RS, SC)- and (SS, SC)-N-((5-(1-cyclopropylethyl)-2,3-dihydro-1H-inden-4-yl)carbamoyl)-4-(2-hydroxypropan-2-yl)furan-2-sulfonimidamide] | 2557 | 6.8 | 0.296 | 0.74 | 56.2 | 14367 | 6397 | 2.4 | ≤ 100 | 2.25 ± 0.5 10^6/mL | 1522.5 ± 313.2 | 26.3 |  |  |  |  |  |  |  |
| CC(C)(O)c1coc(S(=N)(=O)NC(=O)Nc2c(CC3CCC3)ccc3c2CCC3)c1 (single isomer, unassigned) [Compound 18-2, RS- and SS-N-((5-(cyclobutylmethyl)-2,3-dihydro-1H-inden-4-yl)carbamoyl)-4-(2-hydroxypropan-2-yl)furan-2-sulfonimidamide] |  |  |  |  |  |  |  |  | ≤ 100 | 1.72 ± 0.3 10^6/mL | 795.5 ± 232.8 | 11.2 | 3691 | 5.6 | 0.346 | 0.86 | 28427 | 16600 | 3.1 |
